Read-outs that look alike come from different tables or passages of the source.

Data set [1] deals with primary lymphoblasts from pediatric patients with acute lymphoblastic leukemia. Kind of data set: Resazurin cytotoxicity assay in primary lymphoblasts. Type of data set: cell-based. Particulars: Homo sapiens. The source says:
Peripheral blood samples were collected from 1–10-year-old pediatric patients with newly diagnosed ALL in the acute phase of the disease or from adult healthy volunteers at N.N. Blokhin National Research Center of Oncology. The Ethical Committee of the N.N. Blokhin National Research Center of Oncology approved this study, and written informed consents were provided. […] were isolated by centrifugation with Ficoll-Isopaque (“Paneco”, Russia) and then cultured in the RPMI-1640 media (“Paneco”, Russia) supplemented with 20% FBS (“Biowest”, France), 2 mM L-glutamine, 0.5 ME/mL penicillin and 0.5 µg/mL streptomycin (“Paneco”, Russia) and 10 mg/L phytohaemagglutinin (“Paneco”, Moscow, Russia).
Isolated PBMCs were seeded into 96-well plates (2 × 10^6 cells/well) and treated with 10S-E2 at a wide range of concentrations (2–200 µM). Cell viability was analyzed after 24 h of incubation, assessing metabolic activity with the addition of 0.177 mg/mL of resazurin at 8–10 h before the end of the incubation. Fluorescence intensity was evaluated using a Fluoroskan FL microplate fluorimeter (“Thermo Scientific”, Waltham, MA, USA). The IC50 values were determined using GraphPad Prism (Ver.7.0) software. The experiments were performed in triplicate.
For orientation: Resazurin is reduced to fluorescent resorufin, in cell work by metabolically active cells.

In data set [2] the test system is Rankl, Mmp9, Tsc2, Trap, Bglap mRNA expression in bone tissue. Kind of data set: Glucocorticoid-induced osteoporosis model: Q-PCR of marker genes in bone tissue. In kind it is in vivo, mice. Conditions: 5 weeks; Dex 20 mg/kg, 10S-E2 10 mg/kg. Here is the method:
(A) H&E bone staining and quantification of cortical bone thickness. (B) Q-PCR analysis of Rankl, Mmp9, Tsc2, Trap, and Bglap mRNA expression in bone tissue. […] (C) H&E skin staining and quantification of dermal adipose thickness (50 images per treatment group of 10 animals). Statistically significant differences compared to the control: * p < 0.05, ** p < 0.01.
Total RNA isolation from cell cultures and murine bones, reverse transcription, and Q-PCR were performed as described in [36]. […] Results were normalized to the expression of the housekeeping RPL27 и Rpl27 genes. The experiments were performed in triplicate.
The protocol for the experiment was approved by the local N.N. Blokhin National Medical Research Center Ethics Committee and corresponded to the guidelines for the welfare and use of animals in cancer research adopted by The United Kingdom Coordinating Committee on Cancer Prevention Research. […] Body weight was recorded twice a week for toxicity control.

Usually IC50 stands for the point on the concentration scale where inhibition reaches its midpoint. On to `CCCCCCNCC(O)c1ccc(OCc2ccccc2)cc1` (stereo not drawn) [10S-E2, 1-[4-(benzyloxy)phenyl]-2-(hexylamino)ethanol], for which the IC50 amounted to 40.9 ± 3.12 µM in data set [1] (24 h, patient code 3, 24 h, read-out: IC50 of cytotoxic effect); 43.2 ± 9.48 µM in data set [1] (24 h, patient code 4, 24 h, read-out: IC50 of cytotoxic effect); 43 ± 0.71 µM in data set [1] (24 h, patient code 7, 24 h, read-out: IC50 of cytotoxic effect); 60.6 ± 0.97 µM in data set [1] (24 h, patient code 8, 24 h, read-out: IC50 of cytotoxic effect); 71.3 ± 5.59 µM in data set [1] (24 h, patient code 10, 24 h, read-out: IC50 of cytotoxic effect); 75.7 ± 4.63 µM in data set [1] (24 h, patient code 12, 24 h, read-out: IC50 of cytotoxic effect). Further, the IC50 was found to be 64.2 ± 0.55 µM in data set [1] (24 h, patient code 20, 24 h, read-out: IC50 of cytotoxic effect); 49.4 ± 1.95 µM in data set [1] (24 h, patient code 21, 24 h, read-out: IC50 of cytotoxic effect); 55.2 ± 2.25 µM in data set [1] (24 h, patient code 23, 24 h, read-out: IC50 of cytotoxic effect); 70.3 ± 2.54 µM in data set [1] (24 h, patient code 24, 24 h, read-out: IC50 of cytotoxic effect); 80.3 ± 4.09 µM in data set [1] (24 h, patient code 25, 24 h, read-out: IC50 of cytotoxic effect); 52.4 ± 0.07 µM in data set [1] (24 h, patient code 30, 24 h, read-out: IC50 of cytotoxic effect). The IC50 in data set [1] (24 h, patient code 31, 24 h, read-out: IC50 of cytotoxic effect) was determined as 63.2 ± 1.42 µM; in data set [1] (24 h, patient code 33, 24 h, read-out: IC50 of cytotoxic effect), 67.6 ± 4.02 µM; in data set [1] (24 h, patient code 34, 24 h, read-out: IC50 of cytotoxic effect) it was 55 ± 1.91 µM; in data set [1] (24 h, patient code 35, 24 h, read-out: IC50 of cytotoxic effect), 65.9 ± 0.27 µM; in data set [1] (24 h, patient code 37, 24 h, read-out: IC50 of cytotoxic effect), 69.8 ± 3.66 µM; in data set [1] (24 h, patient code 39, 24 h, read-out: IC50 of cytotoxic effect), 71.3 ± 2.59 µM. In addition, the IC50 in data set [1] (24 h, patient code 46, 24 h, read-out: IC50 of cytotoxic effect) is 71.5 ± 2.08 µM; in data set [1] (primary lymphoblast samples from 19 patients diagnosed with ALL, read-out: IC50 of cytotoxic effect, range over samples), 40 to 70 µM. In data set [2], the “Mmp9 mRNA expression in bone tissue” value is recorded as “significantly downregulated”. The “Rankl mRNA expression in bone tissue” value in data set [2] is on record as “significantly downregulated”. In data set [2], the “Trap mRNA expression in bone tissue” value is given as “significantly downregulated”. In addition, the “Tsc2 mRNA expression in bone tissue” value in data set [2] is “significantly downregulated”.

The record behind these values is article PMC12691742, “Anti-Cancer Outcome of Glucocorticoid Receptor Transrepression by Synephrine Derivatives in Hematological Malignancies” (International Journal of Molecular Sciences, 2025).
